Test results reported in PubChem BioAssay AID248 (DTP/NCI, 2004).
Values joined by “and” are separate entries in the source; they are usually repeats but may differ in a detail not shown here. Identical values can stand only once. Inconclusive results and toxic doses are left out. No stated cut-off is given here; in the data, active means T/C of 150% or more; inactive means T/C below 125%.

Test system: L1210 leukemia ip in BDF1 mice, survival T/C
Assay: NCI In Vivo Anticancer Drug Screen. Data for tumor model L1210 Leukemia (intraperitoneal) in B6D2F1 (BDF1) mice
Conditions: higher = longer survival
In short: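 Antitumor effect is assessed in tumor-bearing animals. Survival in the compound arm is compared with a vehicle-dosed control arm and expressed as their quotient.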

[1] = endpoint: mean survival time, dose: 100.0 mg/kg/injection, schedule: Q01DX001 (ip), vehicle: carboxymethylcellulose (CMC)
[2] = endpoint: mean survival time, dose: 200.0 mg/kg/injection, schedule: Q01DX001 (ip), vehicle: carboxymethylcellulose (CMC)
[3] = endpoint: mean survival time, dose: 400.0 mg/kg/injection, schedule: Q01DX001 (ip), vehicle: carboxymethylcellulose (CMC)
[4] = endpoint: mean survival time, dose: 100.0 mg/kg/injection, schedule: Q04DX003 (ip), vehicle: Klucel (hydroxypropylcellulose) (HPC)
[5] = endpoint: mean survival time, dose: 200.0 mg/kg/injection, schedule: Q04DX003 (ip), vehicle: Klucel (hydroxypropylcellulose) (HPC)
[6] = endpoint: mean survival time, dose: 400.0 mg/kg/injection, schedule: Q04DX003 (ip), vehicle: Klucel (hydroxypropylcellulose) (HPC)
[7] = endpoint: mean survival time, dose: 100.0 mg/kg/injection, schedule: Q01DX001 (ip), vehicle: saline
[8] = endpoint: mean survival time, dose: 200.0 mg/kg/injection, schedule: Q01DX001 (ip), vehicle: saline
[9] = endpoint: mean survival time, dose: 400.0 mg/kg/injection, schedule: Q01DX001 (ip), vehicle: saline

Measured: T/C

CCCOC(=O)c1ccc(OC(=O)NC)cc1
inactive: [1] 92 % of control | endpoint: mean survival time, dose: 100.0 mg/kg/injection, schedule: Q01DX009 (ip), vehicle: carboxymethylcellulose (CMC) 101 % of control and 106 % of control | endpoint: mean survival time, dose: 100.0 mg/kg/injection, schedule: Q04DX002 (ip), vehicle: carboxymethylcellulose (CMC) 102 % of control and 112 % of control | endpoint: mean survival time, dose: 100.0 mg/kg/injection, schedule: Q04DX003 (ip), vehicle: carboxymethylcellulose (CMC) 102 % of control | [2] 102 % of control | endpoint: mean survival time, dose: 200.0 mg/kg/injection, schedule: Q01DX009 (ip), vehicle: carboxymethylcellulose (CMC) 109 % of control and 88 % of control | endpoint: mean survival time, dose: 200.0 mg/kg/injection, schedule: Q04DX002 (ip), vehicle: carboxymethylcellulose (CMC) 97 % of control and 102 % of control | endpoint: mean survival time, dose: 200.0 mg/kg/injection, schedule: Q04DX003 (ip), vehicle: carboxymethylcellulose (CMC) 91 % of control | [3] 96 % of control | endpoint: mean survival time, dose: 400.0 mg/kg/injection, schedule: Q04DX002 (ip), vehicle: carboxymethylcellulose (CMC) 94 % of control and 102 % of control

OC[CH2][Hg][Cl]
inactive: endpoint: mean survival time, dose: 1.56 mg/kg/injection, schedule: Q01DX009 (ip), vehicle: saline 94 % of control | endpoint: mean survival time, dose: 3.13 mg/kg/injection, schedule: Q01DX009 (ip), vehicle: saline 86 % of control

O=C(Nc1ccc(C2=NCCN2)cc1)c1c(F)c(F)c(C(=O)Nc2ccc(C3=NCCN3)cc2)c(F)c1F
inactive: endpoint: mean survival time, dose: 1.87 mg/kg/injection, schedule: Q01DX015 (ip), vehicle: methylcellulose (MC) 103 % of control | endpoint: mean survival time, dose: 3.75 mg/kg/injection, schedule: Q01DX015 (ip), vehicle: methylcellulose (MC) 101 % of control | endpoint: mean survival time, dose: 7.5 mg/kg/injection, schedule: Q01DX015 (ip), vehicle: methylcellulose (MC) 121 % of control | endpoint: mean survival time, dose: 37.0 mg/kg/injection, schedule: Q01DX015 (ip), vehicle: methylcellulose (MC) 95 % of control

CC(=O)S[C@@H]1CC2=CC(=O)CC[C@]2(C)[C@H]2CC[C@@]3(C)[C@@H](CC[C@@]34CCC(=O)O4)[C@H]12
inactive: endpoint: mean survival time, dose: 45.0 mg/kg/injection, schedule: Q01DX009 (sc), vehicle: steriod suspending solution 107 % of control | endpoint: mean survival time, dose: 90.0 mg/kg/injection, schedule: Q01DX009 (sc), vehicle: steriod suspending solution 102 % of control | [4] 90 % of control | endpoint: mean survival time, dose: 180.0 mg/kg/injection, schedule: Q01DX009 (sc), vehicle: steriod suspending solution 100 % of control | endpoint: median survival time, dose: 100.0 mg/kg/injection, schedule: Q01DX001 (ip), vehicle: water 97 % of control | endpoint: median survival time, dose: 100.0 mg/kg/injection, schedule: Q01DX009 (sc), vehicle: steriod suspending solution 101 % of control | endpoint: median survival time, dose: 200.0 mg/kg/injection, schedule: Q01DX001 (ip), vehicle: water 91 % of control | endpoint: median survival time, dose: 200.0 mg/kg/injection, schedule: Q01DX009 (sc), vehicle: steriod suspending solution 95 % of control | endpoint: median survival time, dose: 400.0 mg/kg/injection, schedule: Q01DX001 (ip), vehicle: water 97 % of control | endpoint: median survival time, dose: 400.0 mg/kg/injection, schedule: Q01DX009 (sc), vehicle: steriod suspending solution 96 % of control

CCOC1OC(c2ccccc2)=NS(=O)(=O)C1(C)C (stereo not drawn)
inactive: endpoint: mean survival time, dose: 100.0 mg/kg/injection, schedule: Q04DX002 (ip), vehicle: Klucel (hydroxypropylcellulose) (HPC) 103 % of control | endpoint: mean survival time, dose: 200.0 mg/kg/injection, schedule: Q04DX002 (ip), vehicle: Klucel (hydroxypropylcellulose) (HPC) 106 % of control | endpoint: mean survival time, dose: 400.0 mg/kg/injection, schedule: Q04DX002 (ip), vehicle: Klucel (hydroxypropylcellulose) (HPC) 103 % of control

COc1ccc([N+](=O)[O-])cc1NC(C)=O
inactive: [1] 99 % of control | [2] 99 % of control | [3] 99 % of control

N#C/C(=C/c1ccccc1B(O)O)C(=O)O
inactive: [4] 89 % of control | [5] 93 % of control | [6] 95 % of control

CC1=NC(C#N)=C(C#N)N=C(C)C1
inactive: endpoint: mean survival time, dose: 6.25 mg/kg/injection, schedule: Q01DX009 (ip), vehicle: Klucel (hydroxypropylcellulose) (HPC) 107 % of control | endpoint: mean survival time, dose: 12.5 mg/kg/injection, schedule: Q01DX009 (ip), vehicle: Klucel (hydroxypropylcellulose) (HPC) 98 % of control | endpoint: mean survival time, dose: 25.0 mg/kg/injection, schedule: Q01DX009 (ip), vehicle: Klucel (hydroxypropylcellulose) (HPC) 119 % of control | endpoint: mean survival time, dose: 50.0 mg/kg/injection, schedule: Q01DX009 (ip), vehicle: Klucel (hydroxypropylcellulose) (HPC) 107 % of control

CC(=O)OCCc1nnnn1C
inactive: [7] 108 % of control | [8] 104 % of control | [9] 103 % of control

CN=C1N[N+]2=CCSCC2(C)S1 (stereo not drawn)
inactive: endpoint: mean survival time, dose: 0.2 mg/kg/injection, schedule: Q03HX024 (ip), vehicle: saline 90 % of control | endpoint: mean survival time, dose: 0.39 mg/kg/injection, schedule: Q03HX024 (ip), vehicle: saline 98 % of control | endpoint: mean survival time, dose: 0.78 mg/kg/injection, schedule: Q03HX024 (ip), vehicle: saline 98 % of control | endpoint: mean survival time, dose: 1.56 mg/kg/injection, schedule: Q03HX024 (ip), vehicle: saline 95 % of control | endpoint: mean survival time, dose: 3.13 mg/kg/injection, schedule: Q03HX024 (ip), vehicle: saline 105 % of control

Cc1ccc(NC(=O)Nc2ccc(CNC(=O)COc3ccc(Cl)cc3C(=O)O)cc2)cc1S(=O)(=O)F
inactive: [7] 100 % of control | [8] 94 % of control | [9] 94 % of control

c1ccc(-c2[nH]c3ccccc3c2-c2ccccc2)cc1
inactive: endpoint: mean survival time, dose: 50.0 mg/kg/injection, schedule: Q04DX003 (ip), vehicle: Klucel (hydroxypropylcellulose) (HPC) 90 % of control | endpoint: mean survival time, dose: 100.0 mg/kg/injection, schedule: Q01DX009 (ip), vehicle: Klucel (hydroxypropylcellulose) (HPC) 106 % of control | [4] 98 % of control | endpoint: mean survival time, dose: 200.0 mg/kg/injection, schedule: Q01DX009 (ip), vehicle: Klucel (hydroxypropylcellulose) (HPC) 103 % of control | [5] 106 % of control | endpoint: mean survival time, dose: 400.0 mg/kg/injection, schedule: Q01DX009 (ip), vehicle: Klucel (hydroxypropylcellulose) (HPC) 96 % of control | [6] 92 % of control

CCCC(C)CC(=O)CC(C)=O (stereo not drawn)
inactive: endpoint: mean survival time, dose: 100.0 mg/kg/injection, schedule: Q01DX001 (ip), vehicle: saline with Tween-80 93 % of control | endpoint: mean survival time, dose: 200.0 mg/kg/injection, schedule: Q01DX001 (ip), vehicle: saline with Tween-80 95 % of control | endpoint: mean survival time, dose: 400.0 mg/kg/injection, schedule: Q01DX001 (ip), vehicle: saline with Tween-80 95 % of control

CC(C)(C)c1ccc(OC(=O)NCCCCCCNC(=O)Oc2ccc(C(C)(C)C)cc2)cc1
inactive: endpoint: mean survival time, dose: 100.0 mg/kg/injection, schedule: Q01DX009 (ip), vehicle: other 96 % of control | endpoint: mean survival time, dose: 200.0 mg/kg/injection, schedule: Q01DX009 (ip), vehicle: other 91 % of control | endpoint: mean survival time, dose: 400.0 mg/kg/injection, schedule: Q01DX009 (ip), vehicle: other 87 % of control

CC(=O)OC1CCC2(C)C(CCC3C4CCC(C(C)CC(=O)O)C4CCC32)C1 (stereo not drawn)
inactive: endpoint: mean survival time, dose: 100.0 mg/kg/injection, schedule: Q04DX003 (sc), vehicle: steriod suspending solution 106 % of control | endpoint: mean survival time, dose: 200.0 mg/kg/injection, schedule: Q04DX003 (sc), vehicle: steriod suspending solution 106 % of control | endpoint: mean survival time, dose: 400.0 mg/kg/injection, schedule: Q04DX003 (sc), vehicle: steriod suspending solution 111 % of control

CC(C)C1=CC23CCC4C(C)(C(=O)Cl)CCCC4(C)C2CC1C1(Br)C(=O)OC(=O)C31Br (stereo not drawn)
inactive: endpoint: mean survival time, dose: 75.0 mg/kg/injection, schedule: Q01DX001 (ip), vehicle: other 93 % of control | endpoint: mean survival time, dose: 150.0 mg/kg/injection, schedule: Q01DX001 (ip), vehicle: other 88 % of control | endpoint: mean survival time, dose: 300.0 mg/kg/injection, schedule: Q01DX001 (ip), vehicle: other 91 % of control

O=C(c1ccccc1)C(Nc1ccccn1)c1ccccc1 (stereo not drawn)
inactive: endpoint: mean survival time, dose: 75.0 mg/kg/injection, schedule: Q01DX001 (ip), vehicle: carboxymethylcellulose (CMC) 96 % of control | endpoint: mean survival time, dose: 150.0 mg/kg/injection, schedule: Q01DX001 (ip), vehicle: carboxymethylcellulose (CMC) 94 % of control | endpoint: mean survival time, dose: 300.0 mg/kg/injection, schedule: Q01DX001 (ip), vehicle: carboxymethylcellulose (CMC) 94 % of control

O=C1/C(=C/c2ccccc2)Cc2ccccc21
inactive: endpoint: mean survival time, dose: 100.0 mg/kg/injection, schedule: Q01DX009 (ip), vehicle: saline with Tween-80 95 % of control | endpoint: mean survival time, dose: 100.0 mg/kg/injection, schedule: Q04DX003 (ip), vehicle: saline with Tween-80 101 % of control | endpoint: mean survival time, dose: 200.0 mg/kg/injection, schedule: Q01DX009 (ip), vehicle: saline with Tween-80 95 % of control | endpoint: mean survival time, dose: 200.0 mg/kg/injection, schedule: Q04DX003 (ip), vehicle: saline with Tween-80 95 % of control | endpoint: mean survival time, dose: 400.0 mg/kg/injection, schedule: Q01DX009 (ip), vehicle: saline with Tween-80 95 % of control | endpoint: mean survival time, dose: 400.0 mg/kg/injection, schedule: Q04DX003 (ip), vehicle: saline with Tween-80 109 % of control
